This experiment has as its system 171881-019-R-J1-PDC tumor spheroids, viability. Description: Anticancer human tumor 171881-019-R-J1-PDC patient-derived invasive breast carcinoma cell line growth inhibition [GQUAD]. To be noted: spheroids with HUVEC and MSC; for viability, T/C: stronger effect = lower value. The text has this:
DNA G-quadruplex Stabilizer Agents in Combinations in Complex Spheroids
A high-throughput screen of multi-cell type tumor spheroids was designed to identify active combinations of DNA G-quadruplex stabilizer agents and targeted small molecules. Complex spheroids include a stromal component modeled by human endothelial cells (HUVEC) and fibroblasts modeled by human mesenchymal stem cells (MSCs). The concentration ranges selected for each drug and investigational agent were based upon clinically achievable concentrations if the clinical Cmax of the agent was known.
Compounds. The drugs and investigational agents: pidnarulex (CX-5461; NSC782164), APTO-253 (NSC789042), BRACO-19 (NSC847499), peposertib (NSC802822), ceralasertib (NSC780249), elimusertib (NSC800525), camonsertib (NSC841442), AZD-1390 (NSC803789), olaparib (NSC753686), talazoparib (NSC767125), ART-558 (NSC835418), sotorasib (NSC818433), MRTX-1133 (NSC836407), SN-38 (NSC673596), topotecan (NSC609699), etoposide (NSC141540), doxorubicin (NSC123127), gemcitabine (NSC613327), 5-fluorouracil (NSC19893), paclitaxel (NSC125973), vemurafenib (NSC761431), panobinostat (NSC761190), R-306465 (JNJ-16241199; NSC773264), adavosertib (NSC754352), TP-3654 (NSC805149), carboplatin (NSC241240), KSQ-4279 (NSC840948), and staurosporine (NSC755774) were obtained from the National Cancer Institute (NCI) Developmental Therapeutics Program Chemical Repository (34). The FDA-approved anticancer drug set is available from the NCI Developmental Therapeutics Program. […] The stock solutions were prepared in dimethyl sulfoxide (DMSO, Sigma-Aldrich, St. Louis, MO, cat. D2650) at 800-fold the tested concentration and stored at -70 degrees C prior to their use. All drugs and investigational agents were tested over a range starting from a high concentration at or near the clinical Cmax and decreasing in half-log increments. If the clinical Cmax for an agent had not been determined, the highest concentration tested was 10 microM.
2.3 Cell Culture. All cells were maintained in an incubator at 37 degrees C and 5% CO2 with 95% humidity. The PDC lines were cultured according to standard operating procedures established by the NCI PDMR. All PDCs were thawed and cultured in Matrigel-coated flasks prepared with a working solution of 1X Ham's F-12 nutrient mix, without supplementation (Invitrogen, cat. 11765054), 100 U/mL penicillin-streptomycin (Invitrogen, cat. 15140122), and 2.5% Matrigel (Corning Inc., cat. 354248) for the first three passages. The 857933-349-R-J2-PDC line was cultured in 6C/Colon 1B media, which includes advanced DMEM/F-12 (Thermo Fisher Scientific, cat. 12634028), 10 mM HEPES (Thermo Fisher Scientific, cat. 15630080), 1X GlutaMAX supplement (Thermo Fisher Scientific, cat. 35050061), 0.1 mg/mL primocin (InvivoGen, cat. ant-pm-2), 10% defined fetal bovine serum, heat inactivated (HyClone Laboratories Inc., cat. SH30070.03HI), 50% L-WRN conditioned media (ATCC, cat. CRL-3276), 1.25 mM N-Acetyl-L-cysteine (Sigma-Aldrich, cat. A9165), 10 mM nicotinamide (Sigma-Aldrich, cat. N0636), 1X B-27 supplement (Thermo Fisher Scientific, cat. 17504044), 1X N-2 supplement (Thermo Fisher Scientific, cat. 17502048), 10 microM Y-27632 dihydrochloride (Tocris Bioscience, cat. 1254), and 50 ng/mL human EGF recombinant protein (Thermo Fisher Scientific, cat. PHG0311). The 485176-168-R4-J1-PDC line was cultured in Panc media, which includes all 6C/Colon 1B media components plus 100 ng/mL human FGF-10 (Thermo Fisher Scientific, cat. 100-26), 500 nM SB-431542 (Selleckchem, cat. S1067), and gastrin (Tocris, cat. 3006).
[…]

Several values for one entry are separate records, joined by “and”; a condition that tells them apart may be missing. Equal entries are not always repeated.
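Note: spheroids exposed to compounds for 7 days.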
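Throughout, for viability, T/C: 100% = DMSO vehicle control viability.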

With `Cn1ncnc1[C@H]1c2n[nH]c(=O)c3cc(F)cc(c23)N[C@@H]1c1ccc(F)cc1` + Cc1[nH]c2ccc(F)cc2c1-c1nc2c3cccnc3c3ncccc3c2[nH]1, the IC50 is above 316 nM (curve of first compound, second compound 0.0316 µM); above 316 nM (curve of first compound, second compound 0.1 µM); above 316 nM (curve of first compound, second compound 0.316 µM); above 316 nM (curve of first compound, second compound 1 µM); below 0.999 nM (curve of first compound, second compound 3.16 µM); below 0.999 nM (curve of first compound, second compound 10 µM). For the same compound, the viability, T/C is 97.1% (second compound 0.0316 µM, first compound 0.000999 µM); 94.5% (second compound 0.0316 µM, first compound 0.00316 µM); 93.2% (second compound 0.0316 µM, first compound 0.00999 µM); 101% (second compound 0.0316 µM, first compound 0.0316 µM); 94.6% (second compound 0.0316 µM, first compound 0.0999 µM); 84.5% (second compound 0.0316 µM, first compound 0.316 µM). For the same compound, the viability, T/C (second compound 0.1 µM, first compound 0.000999 µM) is 88.5%; the viability, T/C (second compound 0.1 µM, first compound 0.00316 µM) was 106%; the viability, T/C (second compound 0.1 µM, first compound 0.00999 µM) was 90%; the viability, T/C (second compound 0.1 µM, first compound 0.0316 µM) is 101%; the viability, T/C (second compound 0.1 µM, first compound 0.0999 µM) was 99.1%; the viability, T/C (second compound 0.1 µM, first compound 0.316 µM) is 87.6%. Further, the viability, T/C is 102% (second compound 0.316 µM, first compound 0.000999 µM); 107% (second compound 0.316 µM, first compound 0.00316 µM); 91.9% (second compound 0.316 µM, first compound 0.00999 µM); 84.8% (second compound 0.316 µM, first compound 0.0316 µM); 102% (second compound 0.316 µM, first compound 0.0999 µM); 82.4% (second compound 0.316 µM, first compound 0.316 µM). In addition, the viability, T/C is, setting by setting: (second compound 1 µM, first compound 0.000999 µM) 79%; (second compound 1 µM, first compound 0.00316 µM) 76.8%; (second compound 1 µM, first compound 0.00999 µM) 81%; (second compound 1 µM, first compound 0.0316 µM) 75%; (second compound 1 µM, first compound 0.0999 µM) 89.1%; (second compound 1 µM, first compound 0.316 µM) 78.6%. Also, the viability, T/C was 20.5% (second compound 3.16 µM, first compound 0.000999 µM); 18.4% (second compound 3.16 µM, first compound 0.00316 µM); 23.2% (second compound 3.16 µM, first compound 0.00999 µM); 21.1% (second compound 3.16 µM, first compound 0.0316 µM); 19.7% (second compound 3.16 µM, first compound 0.0999 µM); 17.1% (second compound 3.16 µM, first compound 0.316 µM). The viability, T/C (second compound 10 µM, first compound 0.000999 µM) was 48.6%; the viability, T/C (second compound 10 µM, first compound 0.00316 µM) was 52.7%; the viability, T/C (second compound 10 µM, first compound 0.00999 µM) is 55.2%; the viability, T/C (second compound 10 µM, first compound 0.0316 µM) was 47.3%; the viability, T/C (second compound 10 µM, first compound 0.0999 µM) is 56.7%; the viability, T/C (second compound 10 µM, first compound 0.316 µM) was 58.1%.
In the case of `CC1COCCN1c1cc(C2(S(C)(=N)=O)CC2)nc(-c2ccnc3[nH]ccc23)n1` (stereo unspecified), the viability, T/C reads like this: (compound 0.0316 µM) 106% and 98.7% and 79.5%; (compound 0.1 µM) 97.3% and 97.8% and 89.9%; (compound 0.316 µM) 93.4% and 89.1% and 82.5%; (compound 1 µM) 59.2% and 58.9% and 55.1%; (compound 3.16 µM) 18.7% and 17.7% and 17%; (compound 10 µM) 9.35% and 7.04% and 9.31%. The IC50 (curve of compound) was 1290 nM and 1270 nM and 1170 nM.
For the compound `COc1cc(C2c3cc4c(cc3C(OC3OC5COC(C)OC5C(O)C3O)C3COC(=O)C23)OCO4)cc(OC)c1O` (stereo unspecified), the viability, T/C is 96.6% and 95.8% and 105% (compound 0.0316 µM); 89.9% and 93.5% and 94.8% (compound 0.1 µM); 74.2% and 73.8% and 92.6% (compound 0.316 µM); 47.9% and 42.6% and 70.5% (compound 1 µM); 32.8% and 30.4% and 55.1% (compound 3.16 µM); 23.5% and 21.9% and 44.2% (compound 10 µM). Moreover, the IC50 (curve of compound) was 956 nM and 784 nM and 5260 nM.
Regarding `CC[C@@]1(O)C(=O)OCc2c1cc1n(c2=O)Cc2cc3c(CN(C)C)c(O)ccc3nc2-1`, the viability, T/C is 84.9% and 109% and 105% (compound 0.000999 µM); 89.6% and 94.4% and 100% (compound 0.00316 µM); 96.2% and 103% and 85.5% (compound 0.00999 µM); 88.4% and 94.7% and 87.2% (compound 0.0316 µM); 48.2% and 59.4% and 42.4% (compound 0.0999 µM); 35.1% (2×) and 48.3% (compound 0.316 µM). Besides, the IC50 (curve of compound) was 95 nM and 266 nM and 83.1 nM.
Consider `C=CC(=O)N1CCN(c2nc(=O)n(-c3c(C)ccnc3C(C)C)c3nc(-c4c(O)cccc4F)c(F)cc23)C(C)C1` (stereo unspecified), for which the viability, T/C is 85.8% and 97% and 88.1% (compound 0.0316 µM); 94.8% and 102% and 105% (compound 0.1 µM); 101% (2×) and 104% (compound 0.316 µM); 104% (2×) and 108% (compound 1 µM); 96.7% and 93.7% and 96.9% (compound 3.16 µM); 51.8% and 53.1% and 55.6% (compound 10 µM). The IC50 (curve of compound) was above 10000 nM.
For `C=CCn1c(=O)c2cnc(Nc3ccc(N4CCN(C)CC4)cc3)nc2n1-c1cccc(C(C)(C)O)n1`, the viability, T/C reads like this: (compound 0.0316 µM) 101% and 105% (2×); (compound 0.1 µM) 80.9% and 102% and 89.4%; (compound 0.316 µM) 76.6% and 92% and 76.5%; (compound 1 µM) 35.9% (2×) and 39.2%; (compound 3.16 µM) 18.3% and 21.7% and 21.2%; (compound 10 µM) 23.2% and 23.1% and 21.7%. In addition, the IC50 (curve of compound) is 660 nM and 789 nM and 669 nM.
Take `CCc1c2c(nc3ccc(O)cc13)-c1cc3c(c(=O)n1C2)COC(=O)[C@]3(O)CC`: the viability, T/C runs as follows: (compound 0.000999 µM) 77.2% and 89.1% and 77.4%; (compound 0.00316 µM) 38.9% and 53.4% and 39.7%; (compound 0.00999 µM) 37.3% and 53.9% and 33%; (compound 0.0316 µM) 32% and 42.5% and 33.4%; (compound 0.0999 µM) 27.4% and 34.3% and 26%; (compound 0.316 µM) 23.4% and 26.1% and 21.4%. Under “curve of compound”, the IC50 was 2.46 nM and 8.66 nM and 2.44 nM.
As to `CC1COCCN1c1cc(C2(O)CC3CCC(C2)O3)c2cnn(-c3ccn[nH]3)c2n1` (stereo unspecified), the viability, T/C by setting is: (compound 0.0316 µM) 52.1% and 55.1% and 56%; (compound 0.1 µM) 21.3% and 20.7% and 15.9%; (compound 0.316 µM) 9.11% and 9.51% and 6.18%; (compound 1 µM) 6.21% and 5.84% and 2.3%; (compound 3.16 µM) 4.07% and 4.22% and 1.52%; (compound 10 µM) 3.07% and 3.7% and 0.82%. In addition, for the setting “curve of compound”, the IC50 was 33.8 nM and 37.4 nM and 37.3 nM.

These data come from PubChem BioAssay AID2060498 (Molecular Pharmacology Branch, DTP, NCI, 2025).
